Source: patent US20070041934A1, “Dendrimer based compositions and methods of using the same” (priority 2005, published 2007)

Tests used:
[1] = tested on: KB cells; assay: Cell growth inhibition (XTT assay / total cell protein); format: cell-based, human
Protocol: Cell culture and treatment. KB cells were maintained in folate-free medium containing 10% serum (See, e.g., Quintana et al, Pharm. Res. 19, 1310 (2002)) to provide extracellular FA similar to that found in human serum. Cells were plated in 12-well plates for uptake studies, in 24-well plates for cell growth analysis, and in 96-well plates for XTT assay. Cells were rinsed with FA-free medium containing dialyzed serum and incubated at 37° C. with dendrimer-drug conjugates for the indicated time periods and concentrations. KB cells were also maintained in RPMI medium containing 2 μM FA to obtain cells which express low FAR.
Evaluation of dendrimer cytotoxicity. Cell growth was determined by assay of the total protein in lysates of treated cells using a bicinchoninic acid reagent (PIERCE, and by XTT assay, using a kit from Roche.
Because the binding of the conjugate to KB cells reaches maximal uptake within 1 h (Quintana et al, 2002. Pharmaceutical Research 19: 1310-1316.), the effect of the G5-FI-FA-MTX on cell growth was initially tested by pre-incubation of cells with the conjugate for 1 h, followed by incubation in a drug-free medium for 5 d. […] When the cells were pre-incubated with dendrimers for 4 h, there was a modest decrease of about 10% in cell growth as determined by XTT assay. The cytotoxicity measurements were therefore done by incubation with the dendrimer for a minimum of 24 h, a pre-incubation time period shown to induce significant cytotoxicity.
Time course and dose dependent inhibition of cell growth. Previous studies have shown that MTX-induced cytotoxicity is detectable in vitro only if the medium is completely deprived of FA (See, e.g., Sobrero & Bertino, Int. J. Cell Cloning 4, 51 (1986)). The effect of the trifunctional dendrimers on cell growth was tested in cells incubated in a FA-deficient medium. Cells were treated with 300 nM conjugates (equivalent of 1500 nM MTX) or 1500 nM free MTX for 1-4 days, and cell proliferation was determined by estimation of cellular protein content. Cells were treated for 2 days with different concentrations of the conjugates or free MTX (the conjugate concentration is given as MTX equivalents, with 5 MTX per dendrimer molecule). KB cells which express high and low FAR were incubated with 30 nM of the dendrimers for 1 hr at 37° C., rinsed, and the fluorescence of cells was determined by flow cytometric analysis (See. e.g., FIG. 21, left panel). Pre-incubation with 50 μM free FA for 30 min totally prevents cellular binding and uptake of the polymer conjugates (See. e.g., FIG. 21, left panel).
The inhibition of cell growth induced by the conjugates was also tested by XTT assay which is based on the conversion of XTT to formazan by the active mitochondria of live cells (See, e.g., Roehm et al, J Immunol Methods 142, 257 (1991)).
As growth inhibition induced by free MTX was higher than with the equimolar concentrations of MTX in the G5-FITC-FA-MTX below 1 μM (See, e.g., FIG. 21), it was tested whether the FA moiety in the G5-FITC-FA-MTX may be rescuing the cells from MTX-induced cytotoxicity. As the G5-FITC-FA-MTX preparation contained equimolar concentrations of MTX and FA, the effect of similar concentrations of free MTX and free FA on the inhibition of cell growth was determined. […] The cells were rinsed to remove the drugs and incubated with fresh medium for an additional 6 d, and total cell protein was determined. […]

[2] = tested on: s.c. human KB xenografts; assay: Targeted drug delivery to tumor, tumor growth and survival; format: in vivo, SCID mice; settings: for effect on tumor growth: first trial
Protocol: Delivery of targeted nanoparticle therapeutic.
Statistical methods. Means, SD, and SE of the data were calculated. Differences between the experimental groups and the control groups were tested using Student's-Newman-Keuls' test and Ps<0.05 were considered significant.
Targeted drug delivery to tumor cells through the folate receptor. The efficacy of different doses of conjugates was tested on SCID CB-17 mice bearing s.c. human KB xenografts and was compared with equivalent and higher doses of free methotrexate. Mice were maintained on the folic acid-deficient diet for 3 weeks before injection of the KB tumor cells to achieve circulating levels of folic acid that approach those in human serum and to prevent down-regulation of folate receptors on tumor xenografts (See, Mathias et al., J Nucl Med 29, 1579 (1998)). Six groups of SCID mice with five mice in each group were injected s.c. on one flank with 5×10^6 KB cells in 0.2 mL PBS suspension. The highest total dose of G5-FI-FA-MTX therapeutic used equals 55.0 mg/kg and is equivalent to a 5.0 mg/kg total cumulative dose of free methotrexate (FIG. 29). The therapeutic dose of the conjugate was compared with three cumulative doses of free methotrexate equivalent to 33.3, 21.7, and 5.0 mg/kg accumulated in 10 to 15 injections based on mouse survival. Saline and the conjugate without methotrexate (G5-FI-FA) were used as controls.

[3] = Toxicity of dendrimer conjugates and free methotrexate in mice; settings: cumulative doses 33.3 and 21.7 mg/kg
Protocol: (§1) Delivery of targeted nanoparticle therapeutic. Twice weekly, SCID mice with s.c. KB xenografts, starting on day 4 after tumor implantation, received via the tail vein an injection of either targeted or nontargeted conjugate containing methotrexate, a conjugate without methotrexate, free methotrexate, or saline as a control. The compounds were delivered in a 0.2 mL volume of saline per 20 g of mouse. The single dose of methotrexate delivered each time equaled 0.33 mg/kg. The higher doses of 1.67 and 3.33 mg/kg free methotrexate were also tested. The conjugates were delivered at equimolar concentration of methotrexate calculated based on the number of methotrexate molecules present in a nanoparticle. The conjugate without methotrexate was delivered at equimolar concentration of dendrimer. In the initial trial, six groups of mice with five mice in each group received up to 15 injections. In the follow-up trial, mice received up to 28 injections dependent on their survival. The body weights of the mice were monitored throughout the experiment as an indication of adverse effects of the drug. Histopathology of multiple organs was done at the termination of each trial and each time mouse had to be euthanized due to toxic effects or tumor burden. Tissues from lung, heart, liver, pancreas, spleen, kidney, and tumor were analyzed.
Toxicity of dendrimer conjugates. […]

[4] = mouse, in vivo
Protocol: as §1
Toxicity of dendrimer conjugates. […]

| Compound | growth inhibition by XTT assay ([1]; 1, 2 or 3 days) | inhibition of cell growth ([1]; FA-deficient medium, time course and dose dependence (FIGS. 21 and 22)) | growth inhibition compared with equimolar MTX in G5-FITC-FA-MTX ([1]; below 1 μM) | effect on tumor growth ([2]; cumulative dose equivalent to 5.0 mg/kg methotrexate (or equimolar dendrimer)) | effect on tumor growth ([2]; cumulative doses 33.3 and 21.7 mg/kg) | day of trial by which all mice died ([2]; second 99-day trial) [days] | survivors at the termination of the trial ([2]; second 99-day trial) | day of trial by which dose became lethal [3] [days] | histopathology of the liver [4] | reversal of MTX-induced growth-arrest by free FA ([1]; 150 nM FA with 150 nM MTX, 24 h, then 6 d fresh medium, total cell protein) | increase of cell growth above that of the control cells ([1]; 50 μM free FA with conjugate or free MTX 24 h, then 5 days, XTT) [%] |
| --- | --- | --- | --- | --- | --- | --- | --- | --- | --- | --- | --- |
| CN(Cc1cnc2nc(N)nc(N)c2n1)c1ccc(C(=O)N[C@@H](CCC(=O)O)C(=O)O)cc1 [MTX, methotrexate] | time-dependent cytotoxicity | inhibited cell growth in a time- and dose-dependent fashion | higher | no effect on tumor growth | affecting tumor growth | ≤ 66 | no mice surviving | 32 to 36 | advanced liver lesions, collections of inflammatory cells, and periportal inflammation | – | – |
| Nc1nc2ncc(CNc3ccc(C(=O)N[C@@H](CCC(=O)O)C(=O)O)cc3)nc2c(=O)[nH]1 [FA, folic acid] | – | – | – | – | – | – | – | – | – | almost completely reversed the growth-arrest | 20 |
